{"source": "patent US20040071683A1", "about": "“Methods for treating pervasive development disorders” (priority 1999, published 2004)", "key": {"[1]": {"system": "fecal chymotrypsin", "experiment": "Fecal Chymotrypsin Test after secretin infusion in autistic children (Experiments 1 and 2)", "type": "in vivo", "experimental": "In this experiment, 16 children diagnosed as having autism were administered the following Fecal Chymotrypsin Test in accordance with an embodiment of the invention. First, approximately 2 grams of stool were collected from each child and placed in a sterile container (although it is to be understood that any quantity of stool may be collected, as 2 grams of stool is not a required amount). Each stool sample was then analyzed using, e.g., an enzymatic photospectrometry analysis as is known by those skilled in the art, to determine the level of fecal chymotrypsin in the stool. Although the enzymatic photospectrophotometry process is preferred, any suitable conventional method may be used for measuring the fecal chymotrypsin levels. The measured chymotrypsin levels of the 16 autistic children are illustrated in FIG. 13.\nAfter determining the chymotrypsin levels of the stools, each of these levels were compared with threshold chymotrypsin levels to determine if the child was likely to benefit from secretin administration. By way of example, with the fecal chymotrypsin tests of the stool samples being performed at 30° C., normal levels of chymotrypsin are deemed to lie above 8.4 U/gram, whereas pathologically abnormal levels are deemed to lie below 4.2 U/gram. In addition, chymotrypsin levels between 8.4 U/gram and 4.2 U/gram are considered equivocal, and further testing of the individual's fecal chymotrypsin levels over a period of time should be performed.\n(§1) For each of the 16 autistic children tested, a preferred secretin infusion process according to the present invention was performed involving the administering of 1 U/kg of body weight of Secretin-Ferring for a period of nine months at intervals of approximately 6 weeks. In addition, another CARS test was administered to each of the 16 autistic children 3 weeks post secretin administration to determine if their autism had changed post infusion.\nA preferred secretin infusion process includes the initial step of prepping an arm of the candidate child with an IV injection of saline. A test dose of 1U of Secretin-Ferring is then administered to the child. Approximately one minute after infusion, the child is examined for signs of allergic reaction including rash, increased heart rate, and increase of blood pressure. […] Subsequently, each child receives a 1 U/kg of body weight infusion of Secretin-Ferring approximately every 6 weeks for 9 months. […]\nIn this experiment, 37 autistic children with abnormal fecal chymotrypsin levels were administered secretin over the course of 6 months using the secretin infusion process described above. Their fecal chymotrypsin (FC) levels were measured weekly using the fecal chymotrypsin test described above."}, "[2]": {"system": "autistic children", "experiment": "CARS (Childhood Autism Rating Scale) test pre- and post-secretin administration (Experiment 1)", "type": "in vivo", "details": "16 autistic children", "experimental": "Upon determining that a given child was likely to benefit from secretin administration based on the results of the fecal chymotrypsin test, the child was administered a CARS (Childhood Autism Rating Scale) test prior to being scheduled for secretin infusion.\nas §1\nA preferred secretin infusion process includes the initial step of prepping an arm of the candidate child with an IV injection of saline. A test dose of 1U of Secretin-Ferring is then administered to the child. Approximately one minute after infusion, the child is examined for signs of allergic reaction including rash, increased heart rate, and increase of blood pressure. […] Subsequently, each child receives a 1 U/kg of body weight infusion of Secretin-Ferring approximately every 6 weeks for 9 months. It is to be understood that any commercially available form of secretin may be used."}, "[3]": {"system": "children diagnosed with Autism", "details": "secretin given as diagnostic procedure during upper gastrointestinal endoscopy; Horvath et al. 1998; cited from earlier work"}}, "note": "No end group written: not given here.", "data": [{"substance": "secretin (HSDGTFTSELSRLRDSARLQRLLQGLV; ends and bridges not checked; UniProt P63298 33-59, looked up) [a gastrointestinal peptide hormone]", "values": [{"measurement": "# Autistic Children w/ Equivocal FC levels", "setting": "[1]; 6 Months Post-Secretin Administration, of 37 autistic children (0 pre-secretin), equivocal between 8.4 and 4.2 U/gram", "value": 2}, {"measurement": "# Autistic Children w/ normal FC levels", "setting": "[1]; 6 Months Post-Secretin Administration, of 37 autistic children (0 pre-secretin), normal above 8.4 U/gram", "value": 34}, {"measurement": "# Autistic Children w/ Abnormal FC levels", "setting": "[1]; 6 Months Post-Secretin Administration, of 37 autistic children (37 abnormal pre-secretin), abnormal below 4.2 U/gram", "value": 1}, {"measurement": "fecal chymotrypsin level post-secretin administration compared with pre-secretin", "setting": "[1]; each of 16 autistic children, approximately one week after first infusion of 1 U/kg Secretin-Ferring IV, FIG. 14 vs FIG. 13", "value": "increased"}, {"measurement": "CARS fear component post-secretin", "setting": "[2]; 3 weeks post infusion", "value": "increased"}, {"measurement": "CARS component scores post-secretin (all except fear)", "setting": "[2]; 3 weeks post infusion, FIGS. 2-12", "value": "demonstrated improvement"}, {"measurement": "overall CARS scores post-secretin vs pre-secretin", "setting": "[2]; approximately 3 weeks after first secretin administration, FIG. 1", "value": "overall decrease"}, {"measurement": "symptoms associated with Autism after secretin administration", "setting": "[3]", "value": "ameliorating the symptoms associated with Autism"}]}]}
